One may read the melting point as the temperature of the solid-liquid transition.

Molecules are shown by their SMILES.

As for `O=C1COc2ccncc2N1`, the melting point lay in the range of 268 to 270 °C. Compound `O=Cc1ccc(C(=O)O)cc1Cl` yielded a melting point of 218 to 220 °C. For `CC(C)(C)OC(=O)Nc1ccc(CC#N)cc1` the value was 119 to 121 °C; for `C#CCOc1cccc(C#N)c1`, 61 to 63 °C.

`NC(=O)c1cccc(OCC(=O)O)c1` had a melting point of 206 to 208 °C. The result for `CSc1nc(C(=O)O)cc(C2CC2)n1` reads 135 to 137 °C; that for `Cc1nn(C)c(N)c1SC#N`, 176 to 178 °C.

In turn, `Cc1ncc(Cl)c(C(=O)O)n1` gave a melting point of 130 to 132 °C.

Compound `Cc1nc2nc(C(F)(F)F)nn2c(C)c1CCC(=O)O` gave a melting point of 123 to 125 °C. As for `Cc1n[nH]c(C)c1CCO`, the melting point was 122 to 124 °C.

`NC(=O)NC(=O)OCCCCl` gave a melting point of 165 to 167 °C. The result for `COc1cccc(-c2ccc(CN)cc2)c1` reads 46 to 48 °C. In turn, `CC(C)N(C)S(=O)(=O)c1ccc(NC(=O)CCl)cc1` gave a melting point of 118 to 120 °C. The result for `CC(C)Nc1cccnc1` reads 40 to 42 °C; that for `O=C(O)c1cnc(Oc2ccccc2)cn1`, 134 to 136 °C.

For the compound `CC1(C)Cc2c(sc(N)c2C#N)C(C)(C)N1`, the melting point lay in the range of 197 to 199 °C. The result for `Cc1ccc(S(=O)(=O)N(C)c2ccc(OCC(=O)O)cc2)cc1` reads 152 to 154 °C; that for `Nc1cc(C2CCOCC2)[nH]n1`, 103 to 105 °C; that for `O=S(=O)(c1ccc(N2CCNCC2)nc1)N1CCOCC1`, 184 to 186 °C.

In turn, `Fc1ccc(Br)c(-c2nn[nH]n2)c1` came in with a melting point of 193 to 195 °C. Consider `N#CCCCn1cc(C(=O)O)nn1`, for which the melting point lay in the range of 164 to 166 °C. As to `NS(=O)(=O)c1cc(Br)ccc1Br`, the melting point lay in the range of 199 to 201 °C. For the compound `O=C(O)c1cccn2cc(CN3CCCC3)nc12`, the melting point was 264 to 266 °C.

In the case of `NC(=S)Nc1ccc(OC(F)(F)F)cc1`, the melting point lay within 136 to 138 °C. Compound `CCC(CO)NC(=O)c1ccc(N)cc1` (centres undefined) gave a melting point of 153 to 155 °C. For the compound `CC(C)(C)c1ccc(/C=C/c2cc(C(=O)O)c3cc(Br)ccc3n2)cc1`, the melting point fell in the range of 319 to 321 °C. `O=C(O)c1ccc(Br)cc1S` showed a melting point of 203 to 205 °C.

`CC(C)C(Br)C(=O)NC(C)(C)C` (centres undefined) showed a melting point of 135 to 137 °C.

For the compound `CC1CCc2sc(C(=O)NN)cc2C1` (centres undefined), the melting point fell in the range of 122 to 124 °C. Turning to `Fc1ccc(-c2cc(CBr)on2)cc1`, the melting point lay in the range of 74 to 76 °C. The result for `Cc1cccc2cc(C(=O)O)oc12` reads 216 to 218 °C; that for `O=C(O)CSc1ccccc1O`, 51 to 53 °C. In the case of `CCOc1ccc(Br)cc1S(=O)(=O)NC`, the melting point lay within 107 to 109 °C.

With `CC(C)CC(N)C(=O)N1CCNC(=O)C1` (centres undefined), the melting point lay in the range of 162 to 164 °C. `Nc1cccc(C(=O)N2CCCCC2CCO)c1` (centres undefined) had a melting point of 129 to 131 °C.

Compound `O=CNc1cc([N+](=O)[O-])ccc1Cl` had a melting point of 183 to 185 °C.

Regarding `O=C(O)CCCNC(=O)NC1CCCCC1`, the melting point was 153 to 155 °C. For the compound `O=C1C(Br)CCN1c1cccc(Cl)c1` (centres undefined), the melting point was 89 to 91 °C. `CC(O)(CN)c1cccs1` (centres undefined) showed a melting point of 55 to 57 °C.

`Nc1cc(F)ccc1Sc1ncn[nH]1`: the melting point lay within 180 to 182 °C. In turn, `Cc1ccccc1NC(=O)NN` returned a melting point of 141 to 143 °C. `CN(C)c1nc(=N)cc[nH]1` returned a melting point of 149 to 151 °C. Compound `O=C(O)CCC(=O)c1ccc(F)c(F)c1` registered a melting point of 84 to 86 °C. The result for `CC1COc2ccccc2C1O` (centres undefined) reads 95 to 97 °C. The result for `Nc1cc(Cl)c([N+](=O)[O-])cc1OCc1ccccc1` reads 135 to 137 °C. `Cc1c(S(=O)(=O)Cl)oc2ccc(F)cc12` yielded a melting point of 81 to 83 °C. For `Cc1ccc(-c2cc(C(=O)NN)c3ccccc3n2)cc1`, the melting point lay in the range of 85 to 90 °C.

In turn, `O=C(O)CNC(=O)c1ccc(N2CCCC2=O)cc1` yielded a melting point of 190 to 200 °C.

The compound `CCNC(=O)c1ccc(Cl)nc1` had a melting point of 136 to 138 °C. The result for `O=C(c1c[nH]c2ccccc12)N1CCCC1` reads 229 to 231 °C; that for `O=C(Nc1ccccc1C(=O)O)c1ccccc1`, 178 to 182 °C; that for `COc1cc(CC#N)ccc1SC(F)(F)F`, 59 to 61 °C. For `COc1cc(Br)ccc1C#N` the value was 135 to 137 °C; for `NC(=O)NC1(C(=O)O)CC1`, 189 to 191 °C; for `O=C(O)CCc1ccccc1[N+](=O)[O-]`, 109 to 111 °C. The result for `O=C(O)C=C1CCCC1` reads 61 to 63 °C; that for `CC(C)CC(C(=O)O)N1C(=O)c2ccccc2C1=O` (centres undefined), 119 to 121 °C. On to `c1ccc(-c2c[nH]c(C3CCCNC3)n2)cc1` (centres undefined), for which the melting point lay within 93 to 95 °C.

Take `O=c1[nH]c(=O)c2cc(S(=O)(=O)Cl)cnc2[nH]1`: the melting point is 311 to 313 °C. The result for `CC(C)(C)OC(=O)Nc1ccc(CC(=O)O)cc1` reads 153 to 155 °C; that for `Cn1c(C=O)nc2c1c(=O)[nH]c(=O)n2C`, 284 to 286 °C; that for `CCN(CC)c1nc2sc(C(=O)O)cc2s1`, 191 to 193 °C. As for `CCOc1ccc([N+](=O)[O-])cc1CO`, the melting point lay within 102 to 104 °C. For `NCC(O)COc1cccc(Cl)c1Cl` (centres undefined) the value was 110 to 112 °C; for `Nc1ccc(OCc2cn3ccccc3n2)cc1`, 146 to 148 °C. With `O=C(c1c(Cl)cccc1Cl)N1CCNCC1`, the melting point was in the range of 149 to 151 °C. The result for `NNc1nc(C(F)(F)F)cs1` reads 122 to 124 °C; that for `O=C(CCl)Nc1ccccc1C(=O)O`, 185 to 187 °C; that for `Nc1nc(-c2cccs2)ns1`, 163 to 165 °C.

`NNc1ccc(S(=O)(=O)NC2CCCC2)cn1`: the melting point was in the range of 167 to 169 °C. `O=C(O)c1noc(-c2cccc(F)c2)n1` had a melting point of 120 to 122 °C. The result for `O=C(O)C=Cc1cccc(OC2CCCCC2)c1` reads 96 to 98 °C. The result for `C#CCN1CCNC1=O` reads 119 to 121 °C; that for `Nc1ccc2c(c1)S(=O)(=O)NC2=O`, 279 to 281 °C.

Compound `Cn1ccnc1C(=O)c1ccccc1Cl` displayed a melting point of 99 to 101 °C. `Cn1cc(C#N)cc1C(=O)O`: the melting point lay within 239 to 241 °C. `Nc1ncnc2ccccc12` yielded a melting point of 264 to 266 °C.

Turning to `CCc1cccc(CC)c1NC(=O)C(C)Cl` (centres undefined), the melting point lay within 166 to 168 °C. `Cc1nc(N)n[nH]1` showed a melting point of 142 to 144 °C. The result for `O=C(O)c1cc(Br)cnc1S` reads 239 to 241 °C. For `CC(C)(C)c1ccc(CCCC(=O)O)cc1` the value was 53 to 55 °C; for `Nc1ccc(-n2cc[nH]c2=O)cc1`, 217 to 219 °C; for `BrCc1cc(Br)c2c(c1)OCO2`, 123 to 125 °C. For `CCCCc1nc2ccccc2[nH]1` the value was 149 to 151 °C. Compound `O=C1NCCc2ccc(S(=O)(=O)Cl)cc21` showed a melting point of 188 to 190 °C. For `COC(=O)c1ccc(N)c(OC(F)F)c1`, the melting point fell in the range of 64 to 66 °C. The compound `Cc1ccc(Nc2snc(O)c2C#N)cc1` had a melting point of 232 to 234 °C. For `OCc1cn2cc(Cl)cc(Cl)c2n1` the value was 177 to 179 °C. The result for `CC(C)(C)C(O)C(=O)O` (centres undefined) reads 65 to 67 °C; that for `CC(=O)Nc1sc2c(c1C(=O)O)CCCC2`, 210 to 212 °C. The result for `CC(C)(C)c1cc(C(=O)O)c(O)c(C(C)(C)C)c1` reads 157 to 162 °C; that for `Oc1ccc(-c2cnc3ccccc3n2)cc1`, 204 to 206 °C. In turn, `Sc1nnc(C2CCCCC2)o1` yielded a melting point of 81 to 83 °C. For `CC(=O)c1ccc(N2CCOC2=O)cc1` the value was 149 to 151 °C. For `COc1ccc(Nc2ccccc2C(=O)O)cc1` the value was 184 to 186 °C; for `CC(C)C(N)c1nnc2ccccn12` (centres undefined), 116 to 118 °C. For `Cn1cc(C(=O)O)cn1` the value was 203 to 205 °C; for `O=C(O)c1oc2ccccc2c1CSc1ccc(Cl)cc1`, 158 to 160 °C; for `CCOc1ccc(C=C(C#N)C(=O)O)cc1`, 228 to 230 °C.

`OCc1noc(-c2cccc(Cl)c2)n1` returned a melting point of 103 to 105 °C. For `Cc1nc(CO)oc1C` the value was 59 to 61 °C; for `COC(=O)c1ccc2n[nH]c(=O)n2c1`, 225 to 227 °C. For `Cc1cccc2nc(C(F)(F)F)[nH]c(=O)c12` the value was 118 to 120 °C; for `COC(=O)c1c(NC(=O)OC(C)(C)C)c[nH]c1C`, 109 to 111 °C; for `O=Cc1ccc(N2CCOCC2)c(F)c1`, 68 to 70 °C.

Consider `O=C1c2ccccc2C(=O)N1CCc1nn[nH]n1`, for which the melting point is 256 to 258 °C. `CCCC(=O)N1CCCC(C(=O)O)C1` (centres undefined) showed a melting point of 96 to 98 °C. The result for `Cc1cc(C)c2nc(C3CC3)cc(C(=O)O)c2c1` reads 207 to 209 °C. For `Cc1nn(CCO)c(C(F)(F)Cl)c1C(=O)O` the value was 124 to 126 °C; for `NC(=O)c1cccc(CO)c1`, 113 to 115 °C. For `NC(=O)Cc1ccc(F)cc1` the value was 155 to 157 °C. `O=C(O)Cc1ccc(F)c(Br)c1` returned a melting point of 64 to 66 °C. For `COc1cc(C(=O)O)ccc1OCc1csc(C)n1` the value was 172 to 174 °C; for `CN(C)C(=O)Cc1ccc(N)cc1`, 97 to 99 °C. The result for `CCCCCCCCCCCC(=O)c1ccc(O)cc1` reads 71 to 73 °C; that for `CCC(=O)N1CCc2cc(C(=O)CCl)ccc21`, 201 to 203 °C; that for `O=C(O)CNC(=O)c1cccc(Cl)c1`, 98 to 100 °C.

In the case of `CCc1nn(C)c(CC)c1S(N)(=O)=O`, the melting point was in the range of 177 to 179 °C.

The compound `CS(=O)(=O)Cc1ccc(N)cc1` returned a melting point of 159 to 161 °C. The result for `CNC(CO)c1cccc(Br)c1` (centres undefined) reads 79 to 81 °C.

Compound `O=C(O)CSc1ccc(F)c(F)c1` yielded a melting point of 62 to 64 °C.

`NS(=O)(=O)c1cnn(-c2cccc(C(F)(F)F)c2)c1` gave a melting point of 162 to 164 °C. For `CCc1nn(C)c2[nH]nc(N)c12` the value was 123 to 125 °C. The result for `O=C(O)CCN1C(=O)c2ccccc2S1(=O)=O` reads 164 to 166 °C.

Values taken from a melting point compilation (Tetko et al.).
